Data: EP0268178A1, “Pyrrolo-benzimidazoles, medicaments containing these compounds and process for their preparation” (Dr. Karl Thomae GmbH, priority 1986, dated 1988)

Tested on: narkotisierten Katze
Assay: Blood-pressure-lowering and positive inotropic effect in the anaesthetised cat
Format: in vivo, Katzen
Settings: mean of 2 cats; for diastol. Blutdruckänderung in mmHg: anaesthetised cats (Pentobarbital-Natrium), 0,3 mg/kg i.v., Aorta abdominalis; for Zunahme von dp/dt in %: dp/dt max from left ventricular pressure
Protocol: 1. Bestimmung der blutdrucksenkenden und ositiv inotropen Wirkung an der narkotisierten Katze:
Die Untersuchungen wurden an Katzen durchgeführt, die mit Pentobarbital-Natrium (40 mg/kg i.p. + 8 mg/kg/Stunde) narkotisiert waren. Die Tiere atmeten spontan. Der arterielle Blutdruck wurde in der Aorta abdominalis mit einem StathamDruckwandler (P 23 Dc) gemessen. Für die Erfassung der positiv inotropen Wirkung wurde mit einem Kathetertipmanometer (Millar PC-350 A) der Druck in der linken Herzkammer gemessen. Daraus wurde der Kontraktilitätsparameter dp/dt max mittels eines Analogdifferenzierers gewonnen. Die zu untersuchende Substanz wurde in eine Vena femoralis injiziert. Als Lösungsmittel diente Polydiol 200. Die Substanz wurde an 2 Katzen geprüft, Dosis 0,3 mg/kg i.v..

[1] = anaesthetised cats, 0,3 mg/kg i.v.

Compound | diastol. Blutdruckänderung in mmHg [mmHg] | Wirkungsdauer (Halbwertszeit) [1] [Minuten] | Zunahme von dp/dt in % [1] | Zunahme der Herzfrequenz [1]
CCN1C(=O)C(C)(C)c2cc3[nH]c(-c4ccco4)nc3cc21 [B, 5-Äthyl-7,7-dimethyl-2-(2-furyl)-6,7-dihydro-3H,5H-pyrrolo[2,3-f]benzimidazol-6-on] | -31 | 26 | +49% | –
CCN1C(=O)C(C)(C)c2cc3[nH]c(-c4ocnc4C)nc3cc21 [D, 5-Äthyl-7,7-dimethyl-2-(4-methyl-oxazol-5-yl)-6,7-dihydro-3H,5H-pyrrolo[2,3-f]benzimidazol-B-on] | -31 | 7 | +50% | –
CCN1C(=O)C(C)(C)c2cc3[nH]c(-c4ccc(S(C)(=O)=O)cc4)nc3cc21 [C, 5-Äthyl-7,7-dimethyl-2-(4-methylsulfonyl-phenyl)-6,7-dihydro-3H,5H-pyrrolo[2,3-f]benzimidazol-6-on] | -16 | >60 | +91% | +12%
CCN1C(=O)C(C)(C)c2cc3[nH]c(-c4ccncc4)nc3cc21 [A, 5-Äthyl-7,7-dimethyl-2-(4-pyridyl)-6,7-dihyro-3H,5H-pyrrolo[2,3-f]benzimidazol-6-on] | -33 | >80 | +55% | –
